Measurements published in US12338256B2, “Aza-tetracyclic oxazepine compounds and uses thereof” (Genentech, Inc., priority 2022, dated 2025).

Experiments:
Assay type in all cases: cell-based
[1] = system: HPAC (homozygous mutant KRAS G12D human pancreatic cell line); test: KRAS 3D-Cell Proliferation Assay, HPAC (Example 503); settings: Homo sapiens, HPAC, 168 h, HPAC 3D culture, 7 days, CellTiter-Glo 3D; read-out: Prolif HPAC 3D ATP IC50
Outline: (§1)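 IC50 values derive from 4-parameter Hill fits of normalized luminescence, where DMSO sets 0% and 1 μM staurosporine 100% inhibition. 3D cultures in RPMI-1640 with 10% fetal bovine serum were exposed to compound for 7 days before CellTiter-Glo 3D lysis.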

[2] = system: PC-9 (KRAS wild type human lung adenocarcinoma cell line); test: KRAS 3D-Cell Proliferation Assay, PC-9 (Example 503); settings: 168 h, PC-9 3D culture, 7 days, CellTiter-Glo 3D, read-out: Prolif PC9 3D ATP IC50
Description: Example 503: KRAS 3D-Cell Proliferation Assays. Cellular potencies of compounds are assessed by evaluating inhibition of proliferation in 3D cultures of homozygous mutant KRAS G12D human pancreatic cell lines (AsPC-1 and HPAC) as compared to a KRAS wild type human lung adenocarcinoma cell line (PC-9 and/or H1975). Cells are seeded into 384-well black round-bottom, ultra-low attachment assay plates in 50 uL cell growth medium (RPMI-1640 with 10% fetal bovine serum and 2 mM L-glutamine). After overnight incubation at 37° C. and 5% CO2, compounds solubilized in DMSO are added as dilution series to the wells in a total volume of 150 nL (0.3% DMSO final). The cells are incubated for 7 days at 37° C. and 5% CO2. Cell proliferation is quantitated by addition of 40 uL/well of CellTiter-GloÒ 3D (Promega), and the well contents are mixed 20× at high speed using liquid handling automation workstation (Bravo with 384-well head) and centrifuged at 1500 rpm for 2 minutes to eliminate bubbles. This reagent in combination with mechanical disruption releases the cellular ATP to promote activity in a luciferase-based enzyme/substrate chemiluminescent detection system. After a 30-minute incubation under ambient conditions with shaking and an additional 10 minutes without shaking, the luminescence is read on a plate reader (e.g., EnVision [PerkinElmer]). The results are normalized to percent inhibition based on the following control samples: DMSO (0% inhibition) and 1 μM staurosporine (100% inhibition). The normalized luminescence results are plotted against compound concentration, and the data are fit to a 4-parameter Hill equation to determine the IC50 values.

[3] = system: H1975 (KRAS wild type human lung adenocarcinoma cell line); test: KRAS 3D-Cell Proliferation Assay, H1975 (Example 503); settings: Homo sapiens, NCI-H1975, 168 h, H1975 3D culture, 7 days, CellTiter-Glo 3D; read-out: Prolif H1975 3D ATP IC50
Outline: as §1

[4] = system: AsPC-1 (homozygous mutant KRAS G12D human pancreatic cell line); test: KRAS 3D-Cell Proliferation Assay, AsPC-1 (Example 503); settings: Homo sapiens, ASPC1, 168 h, AsPC-1 3D culture, 7 days, CellTiter-Glo 3D; read-out: Prolif AsPC-1 3D ATP IC50
Outline: as §1

Row | Compound | IC50 [1] [nM] | IC50 [2] [nM] | IC50 [3] [nM] | IC50 [4] [nM]
1 | C[C@@H]1Oc2nc(-c3cccc4cccc(Cl)c34)c(F)c3nc(OCC45CCN4CC(F)(F)C5)nc(c23)N2C[C@H]3CC[C@H](N3)[C@@H]12 (single isomer, unassigned) [Compound 21] | 698 | 7700 | 12200 | –
2 | Cc1cc(N)nc(-c2nc3c4c(nc(OC[C@]56CCN5CC(F)(F)C6)nc4c2F)N2C[C@H]4CC[C@H](N4)[C@H]2[C@H](C)O3)c1C(F)(F)F (single isomer, unassigned) [Compound 45] | – | ≥ 20000 | – | –
3 | CN1CCC2COc3nc(-c4cc(O)cc5cccc(F)c45)c(F)c4nc(OC[C@@]56CCCN5C[C@H](F)C6)nc(c34)N2CC1 (single isomer, unassigned) [Compound 49] | – | 2370 | – | ≥ 20000
4 | Oc1cc(-c2nc3c4c(nc(OC[C@@]56CCCN5C[C@H](F)C6)nc4c2F)N2C[C@H]4CC[C@H](N4)[C@H]2CO3)c2c(F)cccc2c1 [Compound 1, 5-Fluoro-4-((5aS,6S,9R)-1-fluoro-12-(((2R,7aS)-2-fluorotetrahydro-1H-pyrrolizin-7a(5H)-yl)methoxy)-5a,6,7,8,9,10-hexahydro-5H-4-oxa-3,10a,11,13,14-pentaaza-6,9-methanonaphtho[1,8-ab]heptalen-2-yl)naphthalen-2-ol] | – | 16900 | – | 226
5 | Fc1c(-c2cccc3cccc(Cl)c23)nc2c3c(nc(OC[C@@]45CCCN4C[C@H](F)C5)nc13)N1C[C@H]3CC[C@H](N3)[C@H]1CO2 [Compound 2, (5aS,6S,9R)-2-(8-chloronaphthalen-1-yl)-1-fluoro-12-(((2R,7aS)-2-fluorotetrahydro-1H-pyrrolizin-7a(5H)-yl)methoxy)-5a,6,7,9,10-hexahydro-5H-4-oxa-3,10a,11,13,14-pentaaza-6,9-methanonaphtho[1,8-ab]heptalene] | – | 4680 | – | 565
6 | Cc1cc(N)c(F)c(-c2nc3c4c(nc(OC[C@@]56CCN5CC(F)(F)C6)nc4c2F)N2C[C@H]4CC[C@H](N4)[C@H]2[C@H](C)O3)c1C(F)(F)F [Compound 92, 3-((5S,5aS,6S,9R)-12-(((S)-3,3-Difluoro-1-azabicyclo[3.2.0]heptan-5-yl)methoxy)-1-fluoro-5-methyl-5a,6,7,8,9,10-hexahydro-5H-4-oxa-3,10a,11,13,14-pentaaza-6,9-methanonaphtho[1,8-ab]heptalen-2-yl)-2-fluoro-5-methyl-4-(trifluoromethyl)aniline] | – | 11200 | – | –
7 | Cc1nc(N)cc(-c2nc3c4c(nc(OC[C@@]56CCCN5C[C@H](F)C6)nc4c2F)N2C[C@H]4CC[C@H](N4)[C@H]2[C@H](C(F)(F)F)O3)c1C(F)(F)F [Compound 242, 4-((5R,5aS,6S,9R)-1-Fluoro-12-(((2R,7aS)-2-fluorotetrahydro-1H-pyrrolizin-7a(5H)-yl)methoxy)-5-(trifluoromethyl)-5a,6,7,8,9,10-hexahydro-5H-4-oxa-3,10a,11,13,14-pentaaza-6,9-methanonaphtho[1,8-ab]heptalen-2-yl)-6-methyl-5-(trifluoromethyl)pyridin-2-amine] | 5.11 | – | 1040 | 7.8
8 | Cc1c(F)c(N)cc(-c2nc3c4c(nc(OC[C@@H]5CC[C@H]6COCCN65)nc4c2F)N2C[C@H]4CC[C@H](N4)[C@H]2[C@H](C(F)(F)F)O3)c1C(F)(F)F [Compound 245, 2-Fluoro-5-((5R,5aS,6S,9R)-1-fluoro-12-(((6S,8aS)-hexahydro-1H-pyrrolo[2,1-c][1,4]oxazin-6-yl)methoxy)-5-(trifluoromethyl)-5a,6,7,8,9,10-hexahydro-5H-4-oxa-3,10a,11,13,14-pentaaza-6,9-methanonaphtho[1,8-ab]heptalene-2-yl)-3-methyl-4-(trifluoromethyl)aniline] | 4.13 | – | 739 | 3.6
9 | Cc1c(F)c(N)cc(-c2nc3c4c(nc(OC[C@@]56CCCN5C[C@H](F)C6)nc4c2F)N2C[C@H]4CC[C@H](N4)[C@H]2[C@H](C(F)(F)F)O3)c1C(F)(F)F [Compound 247, 2-Fluoro-5-((5R,5aS,6S,9R)-1-fluoro-12-(((2R,7aS)-2-fluorotetrahydro-1H-pyrrolizin-7a(5H)-yl)methoxy)-5-(trifluoromethyl)-5a,6,7,8,9,10-hexahydro-5H-4-oxa-3,10a,11,13,14-pentaaza-6,9-methanonaphtho[1,8-ab]heptalene-2-yl)-3-methyl-4-(trifluoromethyl)aniline] | 1.64 | – | 643 | 1
10 | Cc1c(F)c(N)cc(-c2nc3c4c(nc(OC[C@@]56CCCN5C[C@H](F)C6)nc4c2F)N2C[C@H]4CC[C@H](N4)[C@@H]2[C@@H](C(F)(F)F)O3)c1C(F)(F)F [Compound 248, 2-Fluoro-5-((5S,5aR,6S,9R)-1-fluoro-12-(((2R,7aS)-2-fluorotetrahydro-1H-pyrrolizin-7a(5H)-yl)methoxy)-5-(trifluoromethyl)-5a,6,7,8,9,10-hexahydro-5H-4-oxa-3,10a,11,13,14-pentaaza-6,9-methanonaphtho[1,8-ab]heptalene-2-yl)-3-methyl-4-(trifluoromethyl)aniline] | 12.5 | – | 244 | 27.9
11 | Cc1c(F)c(N)cc(-c2nc3c4c(nc(OCC5(CN6CCOCC6)CC5)nc4c2F)N2C[C@H]4CC[C@H](N4)[C@H]2[C@H](C(F)(F)F)O3)c1C(F)(F)F [Compound 249, 2-Fluoro-5-((5R,5aS,6S,9R)-1-fluoro-12-((1-(morpholinomethyl)cyclopropyl)methoxy)-5-(trifluoromethyl)-5a,6,7,8,9,10-hexahydro-5H-4-oxa-3,10a,11,13,14-pentaaza-6,9-methanonaphtho[1,8-ab]heptalene-2-yl)-3-methyl-4-(trifluoromethyl)aniline] | 1.37 | – | 417 | 1.1
12 | C#Cc1cccc2cc(O)cc(-c3nc4c5c(nc(OC[C@@]67CCCN6C[C@H](F)C7)nc5c3F)N3C[C@H]5CC[C@H](N5)[C@H]3[C@H](C(F)(F)F)O4)c12 [Compound 251] | 2.3 | – | 234 | 1.9
13 | Cc1nc(N)cc(-c2nc3c4c(nc(OC[C@@H]5CC[C@H]6COCCN65)nc4c2F)N2C[C@H]4CC[C@H](N4)[C@H]2[C@H](C(F)(F)F)O3)c1C(F)(F)F [Compound 253, 4-((5R,5aS,6S,9R)-1-Fluoro-12-(((6S,8aS)-hexahydro-1H-pyrrolo[2,1-c][1,4]oxazin-6-yl)methoxy)-5-(trifluoromethyl)-5a,6,7,8,9,10-hexahydro-5H-4-oxa-3,10a,11,13,14-pentaaza-6,9-methanonaphtho[1,8-ab]heptalene-2-yl)-6-methyl-5-(trifluoromethyl)pyridin-2-amine] | 19.8 | – | 5080 | 64.6
14 | Cc1nc(N)cc(-c2nc3c4c(nc(OC[C@@]56CCCN5CC5(CC5(F)F)C6)nc4c2F)N2C[C@H]4CC[C@H](N4)[C@H]2[C@H](C(F)(F)F)O3)c1C(F)(F)F (stereo partly drawn) [Compound 254, 4-((5R,5aS,6S,9R)-12-(((7a′S)-2,2-Difluorodihydro-1′H,3′H-spiro[cyclopropane-1,2′-pyrrolizin]-7a′(5′H)-yl)methoxy)-1-fluoro-5-(trifluoromethyl)-5a,6,7,8,9,10-hexahydro-5H-4-oxa-3,10a,11,13,14-pentaaza[6,9]methanonaphtho[1,8-ab]heptalene-2-yl)-6-methyl-5-(trifluoromethyl)pyridin-2-amine] | 1.86 | – | 139 | 2.5
15 | Cc1nc(N)c(F)c(-c2nc3c4c(nc(OC[C@@]56CCCN5CC5(CC5(F)F)C6)nc4c2F)N2C[C@H]4CC[C@H](N4)[C@H]2[C@H](C(F)(F)F)O3)c1C(F)(F)F (stereo partly drawn) [Compound 257, 4-((5R,5aS,6S,9R)-12-(((7a′S)-2,2-Difluorodihydro-1′H,3′H-spiro[cyclopropane-1,2′-pyrrolizin]-7a′(5′H)-yl)methoxy)-1-fluoro-5-(trifluoromethyl)-5a,6,7,8,9,10-hexahydro-5H-4-oxa-3,10a,11,13,14-pentaaza[6,9]methanonaphtho[1,8-ab]heptalen-2-yl)-3-fluoro-6-methyl-5-(trifluoromethyl)pyridin-2-amine] | 8.37 | – | 5020 | 8
